The record followed here is patent publication US12570659B2, “Bicyclic heteroaryl compounds useful as IRAK4 inhibitors” (BRISTOL-MYERS SQUIBB COMPANY, priority 2019, dated 2026).

A word on the IC50: it is the concentration that gives 50% inhibition.

For one assay, the target named is JAK3 kinase (Homo sapiens (Human), UniProt P52333). Kind of assay: JAK3 Homogeneous Time Resolved Fluorescence (HTRF) Assay. It counts as binding. As to conditions: for IC50: competition binding with fluorescein-labeled ATP competitive probe; for Ratio of JAK3 IC50 to IRAK4 IC50: selectivity for IRAK4 over JAK3. The essentials: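 IC50 reflects displacement of a fluorescein-labeled ATP-site probe (at its Kd) from 1 nM tagged JAK3, detected via 0.2 nM Tb anti-His or anti-GST antibody. One-hour incubation; 495 and 520 nm emission ratios, background-subtracted, normalized to maximum signal; 11-point percent inhibition, 4-parameter logistic.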
Sequence of JAK3 kinase (P52333 whole entry): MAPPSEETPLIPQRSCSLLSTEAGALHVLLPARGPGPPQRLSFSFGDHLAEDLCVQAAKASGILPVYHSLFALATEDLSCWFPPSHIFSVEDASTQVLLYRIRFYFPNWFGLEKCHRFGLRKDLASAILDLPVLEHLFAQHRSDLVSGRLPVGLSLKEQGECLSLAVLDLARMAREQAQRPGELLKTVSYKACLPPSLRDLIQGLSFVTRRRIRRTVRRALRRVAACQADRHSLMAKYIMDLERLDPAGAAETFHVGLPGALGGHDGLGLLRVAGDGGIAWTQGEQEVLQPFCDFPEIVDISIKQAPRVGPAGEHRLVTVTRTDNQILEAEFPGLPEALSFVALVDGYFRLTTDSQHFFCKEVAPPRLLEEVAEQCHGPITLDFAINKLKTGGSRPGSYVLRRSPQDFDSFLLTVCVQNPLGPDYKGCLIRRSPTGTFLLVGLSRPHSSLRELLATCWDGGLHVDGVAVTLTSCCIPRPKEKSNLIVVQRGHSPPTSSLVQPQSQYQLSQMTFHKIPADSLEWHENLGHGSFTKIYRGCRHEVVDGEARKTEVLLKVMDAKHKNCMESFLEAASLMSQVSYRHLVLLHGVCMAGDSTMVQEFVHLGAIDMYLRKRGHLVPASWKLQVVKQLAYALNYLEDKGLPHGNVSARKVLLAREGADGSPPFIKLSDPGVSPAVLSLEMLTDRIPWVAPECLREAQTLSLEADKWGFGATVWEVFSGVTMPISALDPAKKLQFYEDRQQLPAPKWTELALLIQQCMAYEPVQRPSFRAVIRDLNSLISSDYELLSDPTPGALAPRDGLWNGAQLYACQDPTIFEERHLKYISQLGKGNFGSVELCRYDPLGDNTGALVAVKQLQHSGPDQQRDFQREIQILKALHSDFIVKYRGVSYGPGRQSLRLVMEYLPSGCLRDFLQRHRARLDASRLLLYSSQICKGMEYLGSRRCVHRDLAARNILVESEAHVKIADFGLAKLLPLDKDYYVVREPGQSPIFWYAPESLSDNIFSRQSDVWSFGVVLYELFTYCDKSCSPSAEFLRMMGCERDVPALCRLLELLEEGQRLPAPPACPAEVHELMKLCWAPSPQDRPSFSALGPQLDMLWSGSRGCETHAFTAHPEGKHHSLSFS

Assay [1] concerns TLR2 agonist-stimulated IL-6 in human whole blood. Description: IRAK4 Whole Blood Assay. It counts as cell-based. As to conditions: lipoteichoic acid 10 μg/mL, 5 hours, IL-6 levels. The procedure:
Human whole blood containing the anti-coagulant ACD-A was plated in 384-well plate (25 μL/well) and incubated with compounds for 60 minutes at 37° C. in a 5% CO2 incubator. The blood was stimulated with a TLR2 agonist, 10 μg/mL final concentration of lipoteichoic acid (Invivogen, San Diego, CA) in 25 μL RPMI (Gibco) for 5 hours in a 5% CO2 incubator. At the end of the incubation, plates were centrifuged at 2300 rpm for 5 minutes. Supernatants were harvested and analyzed for IL-6 levels by Flow Cytometry beads assay (BD Biosciences, San Jose, CA).

In a further assay the target is IRAK4 (Homo sapiens (Human), UniProt Q9NWZ3). Kind of assay: IRAK4 Inhibition Assay. It counts as biochemical. As to conditions: ATP 500 μM; IRAK4 0.6 nM; 60 min room temperature. The method, boiled down: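 Phosphorylated and unphosphorylated fluorescent substrate were resolved by microfluidic electrophoresis after termination with 35 mM EDTA. The room-temperature kinase reaction lasted 60 min after IRAK4, substrates and test compound were combined; vehicle-only defined 0% and no-enzyme 100% inhibition.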
Sequence of IRAK4 (Q9NWZ3 whole entry, species assumed): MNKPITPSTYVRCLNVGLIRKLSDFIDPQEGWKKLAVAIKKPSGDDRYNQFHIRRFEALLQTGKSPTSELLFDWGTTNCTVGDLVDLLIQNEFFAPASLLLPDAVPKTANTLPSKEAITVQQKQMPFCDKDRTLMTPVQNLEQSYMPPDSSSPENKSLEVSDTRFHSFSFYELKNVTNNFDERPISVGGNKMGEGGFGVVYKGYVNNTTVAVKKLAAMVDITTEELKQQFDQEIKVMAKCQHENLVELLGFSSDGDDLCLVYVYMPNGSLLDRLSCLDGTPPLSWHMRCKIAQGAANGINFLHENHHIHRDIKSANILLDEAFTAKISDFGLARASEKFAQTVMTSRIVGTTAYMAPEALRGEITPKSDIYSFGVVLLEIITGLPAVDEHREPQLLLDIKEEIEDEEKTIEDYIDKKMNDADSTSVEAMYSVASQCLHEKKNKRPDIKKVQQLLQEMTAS

Where only a bound is given, the exact number is not on record here.

On to `CC(=O)N[C@H]1CC[C@H](NC(=O)c2cnn3cc(-c4ccc(CO)nc4)cc3c2NC(C)C)CC1` [Example 73, N-((1r,4r)-4-acetamidocyclohexyl)-6-(6-(hydroxymethyl)pyridin-3-yl)-4-(isopropylamino)pyrrolo[1,2-b]pyridazine-3-carboxamide], for which the IC50 on JAK3 kinase was greater than 50 µM; in assay [1], 0.65 µM; on IRAK4 it was 0.0031 µM. Further, at JAK3 kinase, the “Ratio of JAK3 IC50 to IRAK4 IC50” value is reported as greater than 16129.

For the compound `CC(=O)N[C@H]1CC[C@H](NC(=O)c2cnn3cc(-c4ccncc4C)cc3c2NC(C)C)CC1` [Example 56, N-((1r,4r)-4-acetamidocyclohexyl)-4-(isopropylamino)-6-(3-methylpyridin-4-yl)pyrrolo[1,2-b]pyridazine-3-carboxamide], the IC50 is greater than 50 µM at JAK3 kinase, 0.81 µM in assay [1] and 0.0016 µM at IRAK4. On JAK3 kinase, the “Ratio of JAK3 IC50 to IRAK4 IC50” value is greater than 31250.

In the case of `CC(C)Nc1c(C(=O)NCCC(C)(C)O)cnn2cc(-c3ccncc3F)cc12` [Example 77, 6-(3-fluoropyridin-4-yl)-N-(3-hydroxy-3-methylbutyl)-4-(isopropylamino)pyrrolo[1,2-b]pyridazine-3-carboxamide], the concentration for half-maximal inhibition (IC50) in assay [1] came out at 1.31 µM; on IRAK4, 0.0043 µM.

Regarding `CC(C)Nc1c(C(=O)NC[C@@H](F)C(C)(C)O)cnn2cc(-c3cccc(C#N)c3)cc12` [Example 2, (R)-6-(3-cyanophenyl)-N-(2-fluoro-3-hydroxy-3-methylbutyl)-4-(isopropylamino) pyrrolo[1,2-b]pyridazine-3-carboxamide], the figures for the IC50 (in assay [1]; at IRAK4) were greater than 10 µM and 0.012 µM, respectively.

`CC(C)Nc1c(C(=O)NCCNS(C)(=O)=O)cnc2cc(-c3ccncc3F)nn12` [Example 161, 2-(3-fluoropyridin-4-yl)-7-(isopropylamino)-N-(2-(methylsulfonamido)ethyl) pyrazolo[1,5-a]pyrimidine-6-carboxamide]: on JAK3 kinase, the IC50 is greater than 10 µM and the “Ratio of JAK3 IC50 to IRAK4 IC50” value is on record as greater than 63. On IRAK4, the IC50 is 0.16 µM.

In the case of `COc1cc(-c2cc3c(NC(C)C)c(C(=O)N[C@H]4CC[C@H](O)CC4)cnn3c2)c(F)cn1` [Example 57, 6-(5-fluoro-2-methoxypyridin-4-yl)-N-((1r,4r)-4-hydroxycyclohexyl)-4-(isopropylamino)pyrrolo[1,2-b]pyridazine-3-carboxamide], on JAK3 kinase, the concentration for half-maximal inhibition (IC50) was greater than 50 µM and the “Ratio of JAK3 IC50 to IRAK4 IC50” value is on record as greater than 2500. The IC50 on IRAK4 was 0.02 µM.

Take `Cc1cc(-c2cc3c(NCCC(C)(C)O)c(C(=O)NC[C@@H](F)C(C)(C)O)cnn3c2)ccn1` [Example 23, (R)—N-(2-fluoro-3-hydroxy-3-methylbutyl)-4-((3-hydroxy-3-methylbutyl)amino)-6-(2-methylpyridin-4-yl)pyrrolo[1,2-b]pyridazine-3-carboxamide]: at JAK3 kinase, the IC50 was greater than 50 µM and the “Ratio of JAK3 IC50 to IRAK4 IC50” value was greater than 455. The IC50 on IRAK4 turned out to be 0.11 µM.

For the compound `COc1cc(-c2cc3c(NC(C)C)c(C(=O)NCCC(C)(C)O)cnn3c2)c(F)cn1` [Example 78, 6-(5-fluoro-2-methoxypyridin-4-yl)-N-(3-hydroxy-3-methylbutyl)-4-(isopropylamino) pyrrolo[1,2-b]pyridazine-3-carboxamide], at JAK3 kinase, the IC50 is greater than 50 µM and the “Ratio of JAK3 IC50 to IRAK4 IC50” value is greater than 5495. Besides, the IC50 on IRAK4 amounted to 0.0091 µM.

As to `CC(C)Nc1c(C(=O)NC[C@@H](F)C(C)(C)O)cnc2cc(-c3cncc(F)c3)nn12` [Example 130, (R)—N-(2-fluoro-3-hydroxy-3-methylbutyl)-2-(5-fluoropyridin-3-yl)-7-(isopropylamino) pyrazolo[1,5-a]pyrimidine-6-carboxamide], the IC50 at JAK3 kinase was greater than 10 µM; at IRAK4, 0.11 µM. The “Ratio of JAK3 IC50 to IRAK4 IC50” value at JAK3 kinase is listed as greater than 91.

As to `CC(C)Nc1c(C(=O)NC[C@@H](F)C(C)(C)O)cnn2cc(-c3ccc(F)cc3)nc12` [Example 104, (R)—N-(2-fluoro-3-hydroxy-3-methylbutyl)-2-(4-fluorophenyl)-8-(isopropylamino)imidazo[1,2-b]pyridazine-7-carboxamide], at JAK3 kinase, the IC50 was greater than 10 µM and the “Ratio of JAK3 IC50 to IRAK4 IC50” value is greater than 256. On IRAK4, the IC50 amounted to 0.039 µM.

As to `CC(C)Nc1c(C(=O)NC[C@@H](F)C(C)(C)O)cnc2cc(-c3cncc(C(C)(C)O)c3)nn12` [Example 150, (R)—N-(2-fluoro-3-hydroxy-3-methylbutyl)-2-(5-(2-hydroxypropan-2-yl)pyridin-3-yl)-7-(isopropylamino)pyrazolo[1,5-a]pyrimidine-6-carboxamide], on JAK3 kinase, the IC50 was greater than 10 µM and the “Ratio of JAK3 IC50 to IRAK4 IC50” value is greater than 18. The IC50 on IRAK4 was 0.56 µM.

For `Cc1cnccc1-c1cc2c(NC(C)C)c(C(=O)NCCC(C)(C)O)cnn2c1` [Example 72, N-(3-hydroxy-3-methylbutyl)-4-(isopropylamino)-6-(3-methylpyridin-4-yl)pyrrolo[1,2-b]pyridazine-3-carboxamide], on JAK3 kinase, the IC50 was greater than 50 µM and the “Ratio of JAK3 IC50 to IRAK4 IC50” value is listed as greater than 714. For the same compound, the IC50 on IRAK4 was 0.07 µM.

Take `CC(=O)N[C@H]1CC[C@H](NC(=O)c2cnn3cc(-c4ccc(C(N)=O)cc4F)cc3c2NC(C)C)CC1` [Example 76, N-((1r,4r)-4-acetamidocyclohexyl)-6-(4-carbamoyl-2-fluorophenyl)-4-(isopropylamino) pyrrolo[1,2-b]pyridazine-3-carboxamide]: at JAK3 kinase, the IC50 is greater than 50 µM and the “Ratio of JAK3 IC50 to IRAK4 IC50” value is greater than 543. In addition, the IC50 at IRAK4 stood at 0.092 µM.

Regarding `CC(C)Nc1c(C(=O)NC[C@@H](F)C(C)(C)O)cnn2cc(-c3cnc(N)nc3)cc12` [Example 15, (R)-6-(2-aminopyrimidin-5-yl)-N-(2-fluoro-3-hydroxy-3-methylbutyl)-4-(isopropylamino) pyrrolo[1,2-b]pyridazine-3-carboxamide], the IC50 is greater than 50 µM at JAK3 kinase and 0.022 µM on IRAK4. For the same compound, on JAK3 kinase, the “Ratio of JAK3 IC50 to IRAK4 IC50” value is reported as greater than 2273.

Regarding `CC(C)Nc1c(C(=O)N[C@H]2CC[C@H](N)CC2)cnn2cc(-c3cccnc3)cc12` [Example 52, N-((1r,4r)-4-aminocyclohexyl)-4-(isopropylamino)-6-(pyridin-3-yl)pyrrolo[1,2-b]pyridazine-3-carboxamide], on JAK3 kinase, the IC50 is roughly 43 µM and the “Ratio of JAK3 IC50 to IRAK4 IC50” value is reported as roughly 1075. Moreover, the IC50 on IRAK4 is 0.04 µM.

Take `CC(C)(O)[C@H](F)CNC(=O)c1cnn2cc(-c3cccnc3)cc2c1NC1CC1` [Example 32, (R)-4-(cyclopropylamino)-N-(2-fluoro-3-hydroxy-3-methylbutyl)-6-(pyridin-3-yl)pyrrolo[1,2-b]pyridazine-3-carboxamide]: at JAK3 kinase, the IC50 is greater than 50 µM and the “Ratio of JAK3 IC50 to IRAK4 IC50” value was greater than 4545. Besides, the IC50 on IRAK4 amounted to 0.011 µM.

As to `CC(C)(O)CCNc1c(C(=O)NC[C@@H](F)C(C)(C)O)cnn2cc(-c3ccc(C#N)nc3)cc12` [Example 27, (R)-6-(6-cyanopyridin-3-yl)-N-(2-fluoro-3-hydroxy-3-methylbutyl)-4-((3-hydroxy-3-methylbutyl)amino)pyrrolo[1,2-b]pyridazine-3-carboxamide], on JAK3 kinase, the IC50 was greater than 50 µM and the “Ratio of JAK3 IC50 to IRAK4 IC50” value was greater than 208. Moreover, the IC50 on IRAK4 worked out at 0.24 µM.
